# Measured values reported in US7786083B2, “Metastin derivatives and use thereof” (Takeda Pharmaceutical Company Limited, priority 2006, dated 2010).
# *1 amine or outer side, *2 acyl side, *3 side chain or, on linkers, in order; H or OH if unused. Where a SMILES comes first, the peptide text is derived from it. [ ]: non-standard residue; d: D form. Glyψ(E-CHCH)Leu = CC(C)C[C@H](/C=C/CN[*:1])C(=O)[*:2]; Arg(Me) = CNC(=N)NCCC[C@H](N)C(=O)O; Dap(CONH2) = NC(=O)NC[C@H](N)C(=O)O; Ala(cPr) = N[C@@H](CC1CC1)C(=O)O; Hyp = O=C(O)[C@@H]1C[C@@H](O)CN1; Aad = N[C@@H](CCCC(=O)O)C(=O)O; Cha = N[C@@H](CC1CCCCC1)C(=O)O; Cit = NC(=O)NCCC[C@H](N)C(=O)O; Aib = CC(C)(N)C(=O)O
# Test system: metastin receptors
# Assay: Measurement of agonist activity by assaying changes in intracellular calcium ion level (FLIPR, Fluo-4 NW)
# Assay type: cell-based, human
# Settings: specific activity of the EC50 of a test compound based on the EC50 of Metastin (45-54), metastin receptor expression CHO cells
# Procedure, shortened: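 CHO/dhfr⁻ cells stably expressing human or rat metastin receptor, seeded 3×10^4/well for 24 h, loaded with Fluo-4 NW 30 min at 37 °C in HBSS with 0.1% BSA, 20 mM HEPES pH 7.4 and 1 mM probenecid. Compound-stimulated intracellular calcium change read on FLIPR.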
row,SMILES,Specific Activity
1,"CNC(=N)NCCC[C@H](NC(=O)[C@H](CC1CC1)NC(=O)CNC(=O)[C@H](CC1CCCCC1)NC(=O)[C@@H](NC(=O)[C@H](CC(N)=O)NC(=O)[C@@H]1C[C@@H](O)CN1C(=O)[C@@H](Cc1ccc(O)cc1)NC(C)=O)[C@@H](C)O)C(=O)N[C@@H](Cc1c[nH]c2ccccc12)C(N)=O [Compound No. 894, des(1)-Ac-[D-Tyr2,Hyp3,Thr5,Cha6,Ala(cPr)8,Arg(Me)9,Trp10]MS10] (Ac-[dY][Hyp]NT[Cha]G[Ala(cPr)][Arg(Me)]W-NH2)",0.5
2,"CNC(=N)NCCC[C@H](NC(=O)[C@H](CC1CC1)NC(=O)CNC(=O)[C@H](CC1CCCCC1)NC(=O)[C@@H](NC(=O)[C@H](CC(N)=O)NC(=O)[C@H](CCC(=O)O)NC(=O)[C@@H](Cc1ccc(O)cc1)NC(C)=O)[C@@H](C)O)C(=O)N[C@@H](Cc1c[nH]c2ccccc12)C(N)=O [Compound No. 895, des(1)-Ac-[D-Tyr2,Glu3,Thr5,Cha6,Ala(cPr)8,Arg(Me)9,Trp10]MS10] (Ac-[dY]ENT[Cha]G[Ala(cPr)][Arg(Me)]W-NH2)",0.4
3,"CNC(=N)NCCC[C@H](NC(=O)[C@@H](/C=C/CNC(=O)[C@H](CC1CCCCC1)NC(=O)[C@@H](NC(=O)[C@H](CC(N)=O)NC(=O)[C@@H]1C[C@@H](O)CN1C(=O)[C@@H](Cc1ccc(O)cc1)NC(C)=O)[C@@H](C)O)CC(C)C)C(=O)N[C@@H](Cc1c[nH]c2ccccc12)C(N)=O [Compound No. 902, des(1)-Ac-[D-Tyr2,Hyp3,Thr5,Cha6,Gly7Ψ((E)CH═CH)Leu8,Arg(Me)9,Trp10]MS10] (Ac-[dY][Hyp]NT[Cha][Glyψ(E-CHCH)Leu][Arg(Me)]W-NH2)",0.6
4,"CNC(=N)NCCC[C@H](NC(=O)[C@@H](/C=C/CNC(=O)[C@H](CC1CCCCC1)NC(=O)[C@@H](NC(=O)[C@H](CNC(N)=O)NC(=O)[C@@H]1C[C@@H](O)CN1C(=O)[C@@H](Cc1ccc(O)cc1)NC(C)=O)[C@@H](C)O)CC(C)C)C(=O)N[C@@H](Cc1c[nH]c2ccccc12)C(N)=O [Compound No. 903, des(1)-Ac-[D-Tyr2,Hyp3,Alb4,Thr5,Cha6,Gly7Ψ((E)CH═CH)Leu8,Arg(Me)9,Trp10]MS10] (Ac-[dY][Hyp][Dap(CONH2)]T[Cha][Glyψ(E-CHCH)Leu][Arg(Me)]W-NH2)",0.4
5,"CNC(=N)NCCC[C@H](NC(=O)[C@@H](/C=C/CNC(=O)[C@H](CC1CCCCC1)NC(=O)[C@@H](NC(=O)[C@H](CC(N)=O)NC(=O)[C@H](CCC(=O)O)NC(=O)[C@@H](Cc1ccc(O)cc1)NC(C)=O)[C@@H](C)O)CC(C)C)C(=O)N[C@@H](Cc1c[nH]c2ccccc12)C(N)=O [Compound No. 904, des(1)-Ac-[D-Tyr2,Glu3,Thr5,Cha6,Gly7Ψ((E)CH═CH)Leu8,Arg(Me)9,Trp10]MS10] (Ac-[dY]ENT[Cha][Glyψ(E-CHCH)Leu][Arg(Me)]W-NH2)",0.5
6,"CNC(=N)NCCC[C@H](NC(=O)[C@@H](/C=C/CNC(=O)[C@H](CC1CCCCC1)NC(=O)[C@@H](NC(=O)[C@H](CNC(N)=O)NC(=O)[C@H](CCC(=O)O)NC(=O)[C@@H](Cc1ccc(O)cc1)NC(C)=O)[C@@H](C)O)CC(C)C)C(=O)N[C@@H](Cc1c[nH]c2ccccc12)C(N)=O [Compound No. 905, des(1)-Ac-[D-Tyr2,Glu3,Alb4,Thr5,Cha6,Gly7Ψ((E)CH═CH)Leu8,Arg(Me)9,Trp10]MS10] (Ac-[dY]E[Dap(CONH2)]T[Cha][Glyψ(E-CHCH)Leu][Arg(Me)]W-NH2)",0.5
7,"CNC(=N)NCCC[C@H](NC(=O)[C@@H](/C=C/CNC(=O)[C@H](Cc1ccccc1)NC(=O)[C@@H](NC(=O)[C@H](CNC(N)=O)NC(=O)[C@@H]1C[C@@H](O)CN1C(=O)[C@@H](Cc1ccc(O)cc1)NC(C)=O)[C@@H](C)O)CC(C)C)C(=O)N[C@@H](Cc1c[nH]c2ccccc12)C(N)=O [Compound No. 906, des(1)-Ac-[D-Tyr2,Hyp3,Alb4,Gly7Ψ((E)CH═CH)Leu8,Arg(Me)9,Trp10]MS10] (Ac-[dY][Hyp][Dap(CONH2)]TF[Glyψ(E-CHCH)Leu][Arg(Me)]W-NH2)",0.6
8,"CNC(=N)NCCC[C@H](NC(=O)[C@@H](/C=C/CNC(=O)[C@H](Cc1ccccc1)NC(=O)[C@@H](NC(=O)[C@H](CC(N)=O)NC(=O)[C@H](CCC(=O)O)NC(=O)[C@@H](Cc1ccc(O)cc1)NC(C)=O)[C@@H](C)O)CC(C)C)C(=O)N[C@@H](Cc1c[nH]c2ccccc12)C(N)=O [Compound No. 907, des(1)-Ac-[D-Tyr2,Glu3,Thr5,Gly7Ψ((E)CH═CH)Leu8,Arg(Me)9,Trp10]MS10] (Ac-[dY]ENTF[Glyψ(E-CHCH)Leu][Arg(Me)]W-NH2)",0.6
9,"CNC(=N)NCCC[C@H](NC(=O)[C@@H](/C=C/CNC(=O)[C@H](Cc1ccccc1)NC(=O)[C@@H](NC(=O)[C@H](CNC(N)=O)NC(=O)[C@H](CCC(=O)O)NC(=O)[C@@H](Cc1ccc(O)cc1)NC(C)=O)[C@@H](C)O)CC(C)C)C(=O)N[C@@H](Cc1c[nH]c2ccccc12)C(N)=O [Compound No. 908, des(1)-Ac-[D-Tyr2,Glu3,Alb4,Thr5,Gly7Ψ((E)CH═CH)Leu8,Arg(Me)9,Trp10]MS10] (Ac-[dY]E[Dap(CONH2)]TF[Glyψ(E-CHCH)Leu][Arg(Me)]W-NH2)",0.5
10,"CNC(=N)NCCC[C@H](NC(=O)[C@H](CC1CC1)NC(=O)CNC(=O)[C@H](CC1CCCCC1)NC(=O)[C@@H](NC(=O)[C@H](CC(N)=O)NC(=O)[C@H](CC(=O)O)NC(=O)[C@@H](Cc1ccc(O)cc1)NC(C)=O)[C@@H](C)O)C(=O)N[C@@H](Cc1c[nH]c2ccccc12)C(N)=O [Compound No. 909, des(1)-Ac-[D-Tyr2,Asp3,Thr5,Cha6,Ala(cPr)8,Arg(Me)9,Trp10]MS10] (Ac-[dY]DNT[Cha]G[Ala(cPr)][Arg(Me)]W-NH2)",2.5
11,"CNC(=N)NCCC[C@H](NC(=O)[C@H](CC1CC1)NC(=O)CNC(=O)[C@H](CC1CCCCC1)NC(=O)[C@@H](NC(=O)[C@H](CC(N)=O)NC(=O)[C@H](CCCC(=O)O)NC(=O)[C@@H](Cc1ccc(O)cc1)NC(C)=O)[C@@H](C)O)C(=O)N[C@@H](Cc1c[nH]c2ccccc12)C(N)=O [Compound No. 910, des(1)-Ac-[D-Tyr2,Aad3,Thr5,Cha6,Ala(cPr)8,Arg(Me)9,Trp10]MS10] (Ac-[dY][Aad]NT[Cha]G[Ala(cPr)][Arg(Me)]W-NH2)",1.1
12,"CNC(=N)NCCC[C@H](NC(=O)[C@H](CC1CC1)NC(=O)CNC(=O)[C@H](CC1CCCCC1)NC(=O)[C@@H](NC(=O)[C@H](CC(N)=O)NC(=O)[C@H](CCCCN)NC(=O)[C@@H](Cc1ccc(O)cc1)NC(C)=O)[C@@H](C)O)C(=O)N[C@@H](Cc1c[nH]c2ccccc12)C(N)=O [Compound No. 911, des(1)-Ac-[D-Tyr2,Lys3,Thr5,Cha6,Ala(cPr)8,Arg(Me)9,Trp10]MS10] (Ac-[dY]KNT[Cha]G[Ala(cPr)][Arg(Me)]W-NH2)",0.7
13,"CNC(=N)NCCC[C@H](NC(=O)[C@H](CC1CC1)NC(=O)CNC(=O)[C@H](CC1CCCCC1)NC(=O)[C@@H](NC(=O)[C@H](CC(N)=O)NC(=O)C(C)(C)NC(=O)[C@@H](Cc1ccc(O)cc1)NC(C)=O)[C@@H](C)O)C(=O)N[C@@H](Cc1c[nH]c2ccccc12)C(N)=O [Compound No. 912, des(1)-Ac-[D-Tyr2,Aib3,Thr5,Cha6,Ala(cPr)8,Arg(Me)9,Trp10]MS10] (Ac-[dY][Aib]NT[Cha]G[Ala(cPr)][Arg(Me)]W-NH2)",0.6
14,"CNC(=N)NCCC[C@H](NC(=O)[C@@H](/C=C/CNC(=O)[C@H](CC1CCCCC1)NC(=O)[C@@H](NC(=O)[C@H](CCC(N)=O)NC(=O)[C@@H]1C[C@@H](O)CN1C(=O)[C@@H](Cc1ccc(O)cc1)NC(C)=O)[C@@H](C)O)CC(C)C)C(=O)N[C@@H](Cc1c[nH]c2ccccc12)C(N)=O [Compound No. 913, des(1)-Ac-[D-Tyr2,Hyp3,Gln4,Thr5,Cha6,Gly7Ψ((E)CH═CH)Leu8,Arg(Me)9,Trp10]MS10] (Ac-[dY][Hyp]QT[Cha][Glyψ(E-CHCH)Leu][Arg(Me)]W-NH2)",1.4
15,"CNC(=N)NCCC[C@H](NC(=O)[C@@H](/C=C/CNC(=O)[C@H](CC1CCCCC1)NC(=O)[C@@H](NC(=O)[C@H](CCCNC(N)=O)NC(=O)[C@@H]1C[C@@H](O)CN1C(=O)[C@@H](Cc1ccc(O)cc1)NC(C)=O)[C@@H](C)O)CC(C)C)C(=O)N[C@@H](Cc1c[nH]c2ccccc12)C(N)=O [Compound No. 914, des(1)-Ac-[D-Tyr2,Hyp3,Cit4,Thr5,Cha6,Gly7Ψ((E)CH═CH)Leu8,Arg(Me)9,Trp10]MS10] (Ac-[dY][Hyp][Cit]T[Cha][Glyψ(E-CHCH)Leu][Arg(Me)]W-NH2)",0.9
16,"CNC(=N)NCCC[C@H](NC(=O)[C@@H](/C=C/CNC(=O)[C@H](CC1CCCCC1)NC(=O)[C@@H](NC(=O)[C@H](CCC(=O)O)NC(=O)[C@@H]1C[C@@H](O)CN1C(=O)[C@@H](Cc1ccc(O)cc1)NC(C)=O)[C@@H](C)O)CC(C)C)C(=O)N[C@@H](Cc1c[nH]c2ccccc12)C(N)=O [Compound No. 915, des(1)-Ac-[D-Tyr2,Hyp3,Glu4,Thr5,Cha6,Gly7Ψ((E)CH═CH)Leu8,Arg(Me)9,Trp10]MS10] (Ac-[dY][Hyp]ET[Cha][Glyψ(E-CHCH)Leu][Arg(Me)]W-NH2)",4.6
17,"CNC(=N)NCCC[C@H](NC(=O)[C@H](CC1CC1)NC(=O)CNC(=O)[C@H](Cc1ccccc1)NC(=O)[C@@H](NC(=O)[C@H](CC(N)=O)NC(=O)[C@@H]1C[C@@H](O)CN1C(=O)[C@@H](Cc1ccc(O)cc1)NC(C)=O)[C@@H](C)O)C(=O)N[C@@H](Cc1c[nH]c2ccccc12)C(N)=O [Compound No. 916, des(1)-Ac-[D-Tyr2,Hyp3,Thr5,Ala(cPr)8,Arg(Me)9,Trp10]MS10] (Ac-[dY][Hyp]NTFG[Ala(cPr)][Arg(Me)]W-NH2)",0.8
18,"CNC(=N)NCCC[C@H](NC(=O)[C@H](COC)NC(=O)CNC(=O)[C@H](Cc1ccccc1)NC(=O)[C@@H](NC(=O)[C@H](CC(N)=O)NC(=O)[C@@H]1C[C@@H](O)CN1C(=O)[C@@H](Cc1ccc(O)cc1)NC(C)=O)[C@@H](C)O)C(=O)N[C@@H](Cc1c[nH]c2ccccc12)C(N)=O [Compound No. 917, des(1)-Ac-[D-Tyr2,Hyp3,Thr5,Ser(Me)8,Arg(Me)9,Trp10]MS10] (Ac-[dY][Hyp]NTFGS(Me)[Arg(Me)]W-NH2)",0.8
